Where “and” joins values, the source holds several entries; their conditions need not be identical. Identical values can stand only once.
Tested on: 997726-040-R-J2-PDC tumor spheroids, viability
Experiment: Anticancer human tumor 997726-040-R-J2-PDC patient-derived squamous cell lung carcinoma cell line growth inhibition [PI3K]
Conditions: spheroids with HUVEC and MSC; for viability, T/C: stronger effect = lower value
From the text: Combinatorial screen of targeted agents with the PI3K inhibitors inavolisib, alpelisib, duvelisib, and copanlisib in multi-cell type tumor spheroids
A high-throughput screen of multi-cell type tumor spheroids was designed to identify active combinations of targeted small molecules and PI3K pathway inhibitors. Complex spheroids include a stromal component modeled by human endothelial cells (HUVEC) and fibroblasts modeled by human mesenchymal stem cells (MSCs). The concentration ranges selected for each drug and investigational agent were based upon clinically achievable concentrations if the clinical Cmax of the agent was known.
Compounds. The drugs and investigational agents: inavolisib (NSC800729), alpelisib (NSC765974), duvelisib (NSC772469), copanlisib (NSC816437), ipatasertib (NSC767898), afuresertib (NSC778305), talazoparib (NSC767125), sapanisertib (NSC764658), selumetinib (NSC741078), tovorafenib (DAY101, NSC766906), vemurafenib (NSC761431), ravoxertinib (NSC781343), sotorasib (NSC818433), MRTX1133 (NSC 836407), abemaciclib (NSC 768073), palbociclib (NSC758247), venetoclax (NSC 766270), SY5609 (NSC837396), enzalutamide (NSC755605), and darolutamide (NSC825331), were obtained from the National Cancer Institute (NCI) Developmental Therapeutics Program Chemical Repository. The FDA-approved anticancer drug set is available from the NCI Developmental Therapeutics Program. […] The stock solutions were prepared in dimethyl sulfoxide (DMSO, Sigma-Aldrich, St. Louis, MO, cat. D2650) at 800-fold the tested concentration and stored at -70 degrees C prior to their use. All drugs and investigational agents were tested over a range starting from a high concentration at or near the clinical Cmax and decreasing in half-log increments. If the clinical Cmax for an agent had not been determined, the highest concentration tested was 10 microM.
Cell Culture. All cells were maintained in an incubator at 37 degrees C and 5% CO2 with 95% humidity. The PDC lines were cultured according to standard operating procedures established by the NCI PDMR (https://pdmr.cancer.gov/sops/default.htm). All PDCs were thawed and cultured in Matrigel-coated flasks prepared with a working solution of 1X Ham's F-12 nutrient mix, without supplementation (Invitrogen, Waltham, MA, cat. 11765054), 100 U/mL penicillin-streptomycin (Invitrogen, cat. 15140122), and 2.5% Matrigel (Corning Inc., Corning, NY, cat. 354248) for the first three passages. The 354836-022-R-J1-PDC, 475296-252-R-J1-PDC, and 997726-040-R-J2-PDC lines were cultured in 6A media, which includes advanced DMEM/F-12 (Thermo Fisher Scientific, cat. 12634028), 10 mM HEPES (Thermo Fisher Scientific, cat. 15630080), 1X GlutaMAX supplement (Thermo Fisher Scientific, cat. 35050061), 0.1 mg/mL primocin (InvivoGen, San Diego, CA, cat. ant-pm-2), 10% defined fetal bovine serum, heat inactivated (HyClone Laboratories Inc., Logan, UT, cat. SH30070.03HI), 50% L-WRN conditioned media (ATCC, cat. CRL-3276), 1.25 mM N-Acetyl-L-cysteine (Sigma-Aldrich, cat. A9165), 10 mM nicotinamide (Sigma-Aldrich, cat. N0636), 1X B-27 supplement (Thermo Fisher Scientific, cat. 17504044), 1X N-2 supplement (Thermo Fisher Scientific, cat. 17502048), and 10 microM Y-27632 dihydrochloride (Tocris Bioscience, Bristol, United Kingdom, cat. 1254). The 624824-186-R-J2-PDC line was cultured in 6C/Colon 1B media, which includes all 6A media components plus 50 ng/mL human EGF recombinant protein (Thermo Fisher Scientific, cat. PHG0311). […]

[1] = compound alone, run of 06/12/2023
[2] = compound alone, run of 06/13/2023
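Note: spheroids exposed to compounds for seven days before readout.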

Row | SMILES | IC50 (curve of compound) | viability, T/C (compound 0.0316 µM) | viability, T/C (compound 0.1 µM) | viability, T/C (compound 0.316 µM) | viability, T/C (compound 1 µM) | viability, T/C (compound 3.16 µM) | viability, T/C (compound 10 µM) | viability, T/C (compound 0.00316 µM) | viability, T/C (compound 0.01 µM) | other results
1 | C=CC(=O)N1CCN(c2nc(=O)n(-c3c(C)ccnc3C(C)C)c3nc(-c4c(O)cccc4F)c(F)cc23)C(C)C1 (stereo not drawn) | > 10 µM | 105% [middle of 4 runs] | 91.2% and 100% (2×) and 96.7% | 109% [middle of 4 runs] | 109% [middle of 4 runs] | 126% [middle of 4 runs] | 122% [middle of 4 runs] |  |  | 
2 | CC(=O)c1c(C)c2cnc(Nc3ccc(N4CCNCC4)cn3)nc2n(C2CCCC2)c1=O | > 0.1 µM | 82.2% [middle of 4 runs] | 62.8% [middle of 4 runs] |  |  |  |  | 99.1% [middle of 4 runs] | 91.3% [middle of 4 runs] | viability, T/C (compound 0.000316 µM): 94.7% [middle of 4 runs]; viability, T/C (compound 0.001 µM): 92.8% [middle of 4 runs]
3 | CC(Nc1ccc2c(c1)OCCn1cc(N3C(=O)OCC3C(F)F)nc1-2)C(N)=O (stereo not drawn) |  | 61% [middle of 8 runs] | 44.3% [middle of 8 runs] | 32.9% [middle of 8 runs] | 28.2% [middle of 8 runs] |  |  | 91.6% [middle of 8 runs] | 81.8% [middle of 8 runs] | IC50 [1]: 71.5 nM [middle of 8 runs]
4 | CC(Nc1ncnc2nc[nH]c12)c1cc2cccc(Cl)c2c(=O)n1-c1ccccc1 (stereo not drawn) |  | 106% [middle of 8 runs] | 99.4% [middle of 8 runs] | 94.3% [middle of 8 runs] | 86.6% [middle of 8 runs] | 70.8% [middle of 8 runs] | 54.7% [middle of 8 runs] |  |  | IC50 [2]: > 10 µM and 9.01 µM
5 | CC1(C)CCC(CN2CCN(c3ccc(C(=O)NS(=O)(=O)c4ccc(NCC5CCOCC5)c([N+](=O)[O-])c4)c(Oc4cnc5[nH]ccc5c4)c3)CC2)=C(c2ccc(Cl)cc2)C1 | 8.5 µM [middle of 4 runs] | 98.4% [middle of 4 runs] | 95.7% [middle of 4 runs] |  | 102% [middle of 4 runs] | 98.8% [middle of 4 runs] | 42.4% [middle of 4 runs] |  |  | 
6 | CC1(C)CCC(Nc2ncc(C(F)(F)F)c(-c3c[nH]c4c(P(C)(C)=O)c(C#N)ccc34)n2)CN1 (stereo not drawn) |  | 45.6% [middle of 4 runs] | 42.6% [middle of 4 runs] | 48% [middle of 4 runs] | 44% [middle of 4 runs] |  | 23.3% [middle of 4 runs] |  |  | 
7 | CCCS(=O)(=O)Nc1ccc(F)c(C(=O)c2c[nH]c3ncc(-c4ccc(Cl)cc4)cc23)c1F | 7.12 µM and 7.36 µM and 7.32 µM | 103% [middle of 4 runs] | 106% [middle of 4 runs] | 104% (2×) and 114% and 126% | 131% [middle of 4 runs] |  | 27.6% [middle of 4 runs] |  |  | 
8 | CCN1CCN(Cc2ccc(Nc3ncc(F)c(-c4cc(F)c5nc(C)n(C(C)C)c5c4)n3)nc2)CC1 | > 1 µM | 74.3% [middle of 4 runs] | 64.8% [middle of 4 runs] | 68.5% [middle of 4 runs] |  |  |  | 94% [middle of 4 runs] | 88.4% [middle of 4 runs] | 
9 | COc1c(OCCCN2CCOCC2)ccc2c3n(c(=NC(=O)c4cnc(N)nc4)nc12)CCN3 |  | 36.3% [middle of 8 runs] | 22.1% [middle of 8 runs] | 4.98% [middle of 8 runs] | 1.19% [middle of 8 runs] |  |  | 82.3% [middle of 8 runs] | 58.9% [middle of 8 runs] | IC50 [2]: 15.9 nM [middle of 8 runs]
10 | Cc1nc(NC(=O)N2CCCC2C(N)=O)sc1-c1ccnc(C(C)(C)C(F)(F)F)c1 (stereo not drawn) |  | 91.9% [middle of 8 runs] | 77% [middle of 8 runs] | 57.5% [middle of 8 runs] | 42.9% [middle of 8 runs] | 30.8% [middle of 8 runs] | 16.2% [middle of 8 runs] |  |  | IC50 [1]: 599 nM [middle of 8 runs]
11 | Cn1cnc2c(F)c(Nc3ccc(Br)cc3Cl)c(C(=O)NOCCO)cc21 |  |  |  |  |  |  |  |  |  | viability, T/C (compound 0.00949 µM): 77.2% [middle of 4 runs]; viability, T/C (compound 0.03 µM): 70.8% [middle of 4 runs]; viability, T/C (compound 0.0949 µM): 58.2% [middle of 4 runs]; viability, T/C (compound 0.3 µM): 48.6% [middle of 4 runs]; viability, T/C (compound 0.949 µM): 48.3% [middle of 4 runs]; viability, T/C (compound 3 µM): 40.8% [middle of 4 runs]
12 | Cn1ncnc1[C@H]1c2n[nH]c(=O)c3cc(F)cc(c23)N[C@@H]1c1ccc(F)cc1 | > 0.1 µM | 116% [middle of 4 runs] | 102% [middle of 4 runs] |  |  |  |  | 96.6% [middle of 4 runs] | 98.5% [middle of 4 runs] | viability, T/C (compound 0.000316 µM): 98.9% [middle of 4 runs]; viability, T/C (compound 0.001 µM): 99.5% [middle of 4 runs]

The next lines start with results.

Row | IC50 (curve of compound) | SMILES | viability, T/C (compound 0.0316 µM) | viability, T/C (compound 0.1 µM) | viability, T/C (compound 0.316 µM) | viability, T/C (compound 1 µM) | viability, T/C (compound 3.16 µM) | viability, T/C (compound 10 µM) | viability, T/C (compound 0.00316 µM) | viability, T/C (compound 0.01 µM) | other results
13 | 336 nM [middle of 4 runs] | CC(C)NCC(C(=O)N1CCN(c2ncnc3c2C(C)CC3O)CC1)c1ccc(Cl)cc1 (stereo not drawn) | 88.5% [middle of 4 runs] | 77% [middle of 4 runs] | 51.8% [middle of 4 runs] | 25.5% [middle of 4 runs] | 13.7% [middle of 4 runs] | 9.08% [middle of 4 runs] |  |  | 
14 | 28.8 nM [middle of 4 runs] | CC(C)n1nc(-c2ccc3oc(N)nc3c2)c2c(N)ncnc21 | 50.7% [middle of 4 runs] | 14.7% [middle of 4 runs] |  |  |  |  | 87.5% [middle of 4 runs] | 68% [middle of 4 runs] | viability, T/C (compound 0.000316 µM): 91.5% [middle of 4 runs]; viability, T/C (compound 0.001 µM): 85% [middle of 4 runs]
15 | > 10 µM | CC(Cn1ccc(-c2ccc(C#N)c(Cl)c2)n1)NC(=O)c1cc(C(C)O)[nH]n1 (stereo not drawn) | 101% [middle of 4 runs] | 103% [middle of 4 runs] | 105% [middle of 4 runs] | 100% [middle of 4 runs] | 107% [middle of 4 runs] | 96.3% [middle of 4 runs] |  |  | 
16 | > 10 µM | CNC(=O)c1ccc(N2C(=S)N(c3ccc(C#N)c(C(F)(F)F)c3)C(=O)C2(C)C)cc1F | 109% [middle of 4 runs] | 95.3% [middle of 4 runs] | 97% [middle of 4 runs] | 93.3% [middle of 4 runs] | 108% [middle of 4 runs] | 95.8% [middle of 4 runs] |  |  | 
17 | > 10 µM | Cn1nccc1Nc1nccc(-c2ccn(C(CO)c3ccc(Cl)c(F)c3)c(=O)c2)n1 (stereo not drawn) | 93.2% [middle of 4 runs] | 78.7% [middle of 4 runs] | 73.9% [middle of 4 runs] | 61.8% [middle of 4 runs] | 61.6% [middle of 4 runs] | 58.1% [middle of 4 runs] |  |  | 

From PubChem BioAssay AID1963964 (Molecular Pharmacology Branch, DTP, NCI, 2024)
